Biological target: T1, recombinant autotaxin (Homo sapiens, UniProt Q13822)
T1 construct: made in house; host or cells: Hi5 insect cells (baculovirus)
Assay: Autotaxin assay (Amplex Red fluorescence, LPC substrate)
Assay type: biochemical
Conditions: percent of uninhibited control (100%) at 1E−05 M compound
Protocol: Autotaxin activity is measured indirectly by means of Amplex Red Reagent. In this course, Amplex Red is measured as fluorogenic indicator for generated H2O2. Autotaxin converts substrate lysophosphatidylcholine (LPC) to phosphocholine and lysophosphatidylic acid (LPA). After the conversion phosphocholine is reacted with alkaline phosphatase to obtain inorganic phosphate and choline. During the next step choline is oxidized with choline oxidase to yield betaine, whereby H2O2 is generated. H2O2 reacts with Amplex Red Reagent in the presence of peroxidase (Horseradish peroxidase) in an 1:1 stochiometry and yields highly fluorescent resorufin. The generated fluorescence is measured in a reaction-dependent kinetic mode in order to enable subtraction of fluorescence signals of possible other fluorescent compounds that are not part of the reaction from total measured fluorescence.
1.5 μl of a standard solution or of the compounds of the invention are dissolved in 20 mM Hepes pH 7.2 with maximally 7.7% DMSO in individual concentrations. The resulting solution is pre-incubated together with 10 μl (16 ng) of highly purified recombinant autotaxin in a black 384-hole microtiter plate for 30 min at 22° C.
Thereafter, the reaction is started through the addition of 5 μl L-a-lysophosphatidyl-choline (LPC), whereby the final concentration of LPC is 75 μM. The mixture is incubated for 90 min. at 37° C. After the incubation Amplex Red Reagent, peroxidase (Horseradish peroxidase) and choline oxidase are added. The fluorescence is immediately measured at a wavelength of 612 nm with an excitation wavelength of 485 nm in a “Tecan Ultra multimode” fluorescence reader. The activity of autotaxin is indirectly calculated via the amount of detected generated H2O2.
For IC50 analysis, ten serial 1:3 dilutions starting at 30 μM for each compound were run in duplicates.
IC50 values were calculated on normalized data. For normalization, control wells were added to each assay plate and the signal of uninhibited control wells was set to 100%, whereas the signal inhibited by 500 μM C14 LPA, (Avanti Polar Lipids, Cat#857120P) was set to 0%. Curves were fitted and IC50 values calculated by the following model using proprietory analysis software: Y=Bottom+(100−Bottom)/(1+10^((Log IC50−X)*HillSlope))
Where X is the logarithm of concentration. Y is the response;
Y starts at Bottom and goes to Top with a sigmoid shape.
Protein: Recombinant autotaxin (baculoviral Hi5 expression)
Substrate: L-a-lysophosphatidyl choline (chicken egg); Avanti Polar Lipids #830071P
Standard: C14 LPA, Avanti Polar Lipids, Cat#857120P
Detection Reagent Amplex Red Reagent; Invitrogen #A12222; dissolved in 1.923 ml of DMSO peroxidase Type VI-A (horseradish), Sigma #P6782; dissolved in 7.45 ml of test buffer, Choline Oxidase; Sigma #C5896; dissolved in 2.47 ml test buffer
Detection Reagent Mix: 1:100 dilution of Amplex Red Regent in test buffer
Test buffer: 200 mM Tris-HCl, Merck, Cat #1.08219, pH 7.9; 0.1% BSA, lipid free, Roche Cat#775835

`NC(=O)c1c(NC(=O)Cc2ccc(Cl)cc2F)sc2c1CCN(Cc1ccccn1)C2` [Compound 17, 2-[2-(4-Chloro-2-fluoro-phenyl)-acetylamino]-6-pyridin-2-ylmethyl-4,5,6,7-tetrahydro-thieno[2,3-c]pyridine-3-carboxylic acid amide] was tested. Which “% CTRL (1E−05)” value did it give?
The value was 66%.

Which “% CTRL (1E−05)” value does the source give for `NC(=O)c1c(NC(=O)Nc2ccc(Cl)cc2)sc2c1CCN(Cc1ccccn1)C2` [Compound 18, 2-[3-(4-Chloro-phenyl)-ureido]-6-pyridin-2-ylmethyl-4,5,6,7-tetrahydro-thieno[2,3-c]pyridine-3-carboxylic acid amide] here?
Its value is 88%.

With `O=C(Nc1ccc(Cl)cc1)Nc1sc2c(c1C(=O)N1CCCC1)CCN(C(=O)c1ccc3[nH]nnc3c1)C2` [Compound 27, 1-[6-(1H-Benzotriazole-5-carbonyl)-3-(pyrrolidine-1-carbonyl)-4,5,6,7-tetrahydro-thieno[2,3-c]pyridin-2-yl]-3-(4-chloro-phenyl)-urea] as the compound, how does the “% CTRL (1E−05)” value read?
Its value is 52%.

For `O=C(Nc1ccc(C(F)(F)F)cc1)Nc1nc2ccc(C(=O)Nc3ccc4[nH]c(=O)oc4c3)cc2s1` [Compound 30, 2-[3-(4-Trifluoromethyl-phenyl)-ureido]-benzothiazole-6-carboxylic acid (2-oxo-2,3-dihydro-benzooxazol-6-yl)-amide], which “% CTRL (1E−05)” value is on record?
Its value is 93%.

For `O=C(Nc1ccc(Cl)cc1)Nc1nc2ccc(C(=O)Nc3ccc4[nH]c(=O)oc4c3)cc2s1` [Compound 31, 2-[3-(4-Chloro-phenyl)-ureido]-benzothiazole-6-carboxylic acid (2-oxo-2,3-dihydro-benzooxazol-6-yl)-amide], which “% CTRL (1E−05)” value is on record?
The value was 94%.

With `O=C(Nc1ccc(C(F)(F)F)cc1)Nc1nc2ccc(C(=O)Nc3ccc4[nH]nnc4c3)cc2s1` [Compound 32, 2-[3-(4-Trifluoromethyl-phenyl)-ureido]-benzothiazole-6-carboxylic acid (1H-benzotriazol-5-yl)-amide] as the compound, how does the “% CTRL (1E−05)” value read?
Its value is 64%.

Same assay, conditions: ten serial 1:3 dilutions starting at 30 μM, duplicates; 75 μM LPC; values given as upper bounds

For `NC(=O)c1c(NC(=O)Nc2cc(Cl)cc(Cl)c2)sc2c1CCN(C(=O)c1ccc3[nH]nnc3c1)C2` [Compound 12, 6-(1H-Benzotriazole-5-carbonyl)-2-[3-(3,5-dichloro-phenyl)-ureido]-4,5,6,7-tetrahydro-thieno[2,3-c]pyridine-3-carboxylic acid amide], which IC50 is on record?
Its IC50 is less than 10 µM.

How did the IC50 turn out when `NC(=O)c1c(NC(=O)Cc2cccc(Cl)c2)sc2c1CCN(C(=O)c1ccc3[nH]c(=O)oc3c1)C2` [Compound 13, 2-[2-(3-Chloro-phenyl)-acetylamino]-6-(2-oxo-2,3-dihydro-benzooxazole-6-carbonyl)-4,5,6,7-tetrahydro-thieno[2,3-c]pyridine-3-carboxylic acid amide] was run?
The IC50 was less than 1 µM.

For `NC(=O)c1c(NC(=O)Cc2ccc(Cl)cc2)sc2c1CCN(C(=O)c1ccc3[nH]c(=O)oc3c1)C2` [Compound 14, 2-[2-(4-Chloro-phenyl)-acetylamino]-6-(2-oxo-2,3-dihydro-benzooxazole-6-carbonyl)-4,5,6,7-tetrahydro-thieno[2,3-c]pyridine-3-carboxylic acid amide], which IC50 is on record?
Its IC50 is less than 1 µM.

For `NC(=O)c1c(NC(=O)Nc2ccc(Cl)cc2F)sc2c1CCN(C(=O)c1ccc3[nH]nnc3c1)C2` [Compound 15, 6-(1H-Benzotriazole-5-carbonyl)-2-[3-(4-chloro-2-fluoro-phenyl)-ureido]-4,5,6,7-tetrahydro-thieno[2,3-c]pyridine-3-carboxylic acid amide], which IC50 is on record?
Its IC50 is less than 1 µM.

How did the IC50 turn out when `NC(=O)c1c(NC(=O)Cc2ccc(Cl)cc2F)sc2c1CCN(Cc1cccnc1)C2` [Compound 16, 2-[2-(4-Chloro-2-fluoro-phenyl)-acetylamino]-6-pyridin-3-ylmethyl-4,5,6,7-tetrahydro-thieno[2,3-c]pyridine-3-carboxylic acid amide] was run?
Its IC50 is less than 30 µM.

How did the IC50 turn out when `NC(=O)c1c(NC(=O)Nc2ccc(Cl)cc2)sc2c1CCN(C(=O)c1cccnc1)C2` [Compound 19, 2-[3-(4-Chloro-phenyl)-ureido]-6-(pyridine-3-carbonyl)-4,5,6,7-tetrahydro-thieno[2,3-c]pyridine-3-carboxylic acid amide] was run?
Its IC50 is less than 10 µM.

How did the IC50 turn out when `NC(=O)c1c(NC(=O)Nc2ccc(Cl)cc2)sc2c1CCN(Cc1ccncc1)C2` [Compound 20, 2-[3-(4-Chloro-phenyl)-ureido]-6-pyridin-4-ylmethyl-4,5,6,7-tetrahydro-thieno[2,3-c]pyridine-3-carboxylic acid amide] was run?
Its IC50 is less than 10 µM.

How did the IC50 turn out when `NC(=O)c1c(NC(=O)Cc2ccc(Cl)cc2F)sc2c1CCN(Cc1ccncc1)C2` [Compound 21, 2-[2-(4-Chloro-2-fluoro-phenyl)-acetylamino]-6-pyridin-4-ylmethyl-4,5,6,7-tetrahydro-thieno[2,3-c]pyridine-3-carboxylic acid amide] was run?
Its IC50 is less than 10 µM.

For `NC(=O)c1c(NC(=O)Cc2ccc(Cl)cc2F)sc2c1CCN(C(=O)Cc1cccnc1)C2` [Compound 22, 2-[2-(4-Chloro-2-fluoro-phenyl)-acetylamino]-6-(2-pyridin-3-yl-acetyl)-4,5,6,7-tetrahydro-thieno[2,3-c]pyridine-3-carboxylic acid amide], which IC50 is on record?
The IC50 was less than 10 µM.

With `NC(=O)c1c(NC(=O)Cc2ccc(Cl)cc2F)sc2c1CCN(C(=O)Cc1ccncc1)C2` [Compound 23, 2-[2-(4-Chloro-2-fluoro-phenyl)-acetylamino]-6-(2-pyridin-4-yl-acetyl)-4,5,6,7-tetrahydro-thieno[2,3-c]pyridine-3-carboxylic acid amide] as the compound, how does the IC50 read?
The IC50 was less than 10 µM.

How did the IC50 turn out when `NC(=O)c1c(NC(=O)Cc2ccc(Cl)cc2F)sc2c1CCN(C(=O)CCc1ccccn1)C2` [Compound 24, 2-[2-(4-Chloro-2-fluoro-phenyl)-acetylamino]-6-(3-pyridin-2-yl-propionyl)-4,5,6,7-tetrahydro-thieno[2,3-c]pyridine-3-carboxylic acid amide] was run?
Its IC50 is less than 10 µM.

For `COC(=O)c1c(NC(=O)Nc2ccc(Cl)cc2)sc2c1CCN(C(=O)c1ccc3[nH]nnc3c1)C2` [Compound 25, 6-(1H-Benzotriazole-5-carbonyl)-2-[3-(4-chloro-phenyl)-ureido]-4,5,6,7-tetrahydro-thieno[2,3-c]pyridine-3-carboxylic acid methyl ester], which IC50 is on record?
The IC50 was less than 30 µM.

How did the IC50 turn out when `COC(=O)c1c(NC(=O)Nc2ccc(Cl)cc2)sc2c1CCN(C(=O)c1ccc3[nH]c(=O)oc3c1)C2` [Compound 26, 2-[3-(4-Chloro-phenyl)-ureido]-6-(2-oxo-2,3-dihydro-benzooxazole-6-carbonyl)-4,5,6,7-tetrahydro-thieno[2,3-c]pyridine-3-carboxylic acid methyl ester] was run?
Its IC50 is less than 10 µM.

With `NC(=O)c1c(NC(=O)Nc2ccc(Cl)cc2)[nH]c2cc(C(=O)Nc3ccc4[nH]c(=O)oc4c3)ccc12` [Compound 28, 2-[3-(4-Chloro-phenyl)-ureido]-1H-indole-3,6-dicarboxylic acid 3-amide 6-[(2-oxo-2,3-dihydro-benzooxazol-6-yl)-amide]] as the compound, how does the IC50 read?
The IC50 was less than 30 µM.

`O=C(Cc1ccc(Cl)cc1F)Nc1nc2ccc(C(=O)Nc3ccc4[nH]c(=O)oc4c3)cc2s1` [Compound 29, 2-[2-(4-Chloro-2-fluoro-phenyl)-acetylamino]-benzothiazole-6-carboxylic acid (2-oxo-2,3-dihydro-benzooxazol-6-yl)-amide] was tested. Which IC50 did it give?
Its IC50 is less than 10 µM.

With `O=C(NCc1cc(Cl)cc(Cl)c1)c1[nH]nc2c1CCN(C(=O)c1ccc3[nH]nnc3c1)C2` [Compound 33, 6-(1H-Benzotriazole-5-carbonyl)-4,5,6,7-tetrahydro-2H-pyrazolo[3,4-c]pyridine-3-carboxylic acid 3,5-dichloro-benzylamide] as the compound, how does the IC50 read?
Its IC50 is less than 10 µM.

— patent US8497283B2, “Autotaxin inhibitors” (Merck Patent GmbH, priority 2009, dated 2013)
